Laboratory results as given in US20210269447A1, “NOVEL AMINO-IMIDAZOPYRIMIDINE DERIVATIVES AS JANUS KINASE INHIBITORS AND PHARMACEUTICAL USE THEREOF” (LEO Pharma A/S, priority 2018, published 2021).

What was measured:
[1] = biological target: T1, Human baculovirus-expressed Janus kinase (JAK) 1 (Homo sapiens, UniProt P23458); test: JAK1 kinase assay (HTRF); format: biochemical; conditions: catalytic domain, ATP at Km (7 μM), 40 min
T1 construct: JAK1 (aa 850-1154) and TYK2 (aa 871-1187) are expressed with an N-terminally fused GST-tag; GST (N); purchased Carna Biosciences, Inc 08-144; host or cells: baculovirus expression system
T1 sequence (P23458 850-1154): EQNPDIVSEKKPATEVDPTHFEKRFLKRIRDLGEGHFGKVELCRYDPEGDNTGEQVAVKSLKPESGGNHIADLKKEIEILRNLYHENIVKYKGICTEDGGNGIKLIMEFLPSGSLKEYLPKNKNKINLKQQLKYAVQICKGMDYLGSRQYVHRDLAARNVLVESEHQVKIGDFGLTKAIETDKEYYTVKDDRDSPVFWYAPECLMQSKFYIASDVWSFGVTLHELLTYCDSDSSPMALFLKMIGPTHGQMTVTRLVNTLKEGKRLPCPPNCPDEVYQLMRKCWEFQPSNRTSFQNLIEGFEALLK
Protocol: (§1) Human baculovirus-expressed Janus kinase (JAK) 1, 2, 3 and tyrosin kinase (TYK) 2 were purchased from Carna Biosciences, Inc (#08-144, -045, -046, -147 resp.). All four purified enzymes contain only the catalytic domain. JAK1 (aa 850-1154) and TYK2 (aa 871-1187) are expressed with an N-terminally fused GST-tag, and JAK2 and JAK3 with an N-terminally fused His-tag. Inhibition of phosphorylation of a synthetic peptide was measured in an HTRF-based assay (CisBio #62TKOPEC). First, 75 nL of test compound solution (100% DMSO) was added to a white shallow 384-well plate (NUNC #264706) using a Labcyte ECHO 550 liquid handler. Thereafter, 1 μL of compound dilution buffer (50 mM HEPES, 0.05% bovine serum albumin) and 2 μL of TK solution (TK substrate-biotin in kinase buffer [1× enzymatic buffer from HTRFKinEASE TK kit, 1 mM DTT]) was added. Then, 5 μL kinase-ATP mix (prepared in kinase buffer) was added to the wells and the plates were incubated at RT for 20 (JAK2, 3 and TYK2) to 40 (JAK1) min. For all four kinases a concentration of ATP that corresponded to the Km for ATP was used. The final concentrations of buffers, substrate, kinase and ATP were: JAK1: 50 mM Hepes buffer pH 7.0, 0.01% BSA, 10 mM MgCl2, 1 mM DTT, 7 μM ATP, 50 nM SEB, 1 μM TK Substrate-Biotin and 5 ng JAK1; JAK2: 50 mM Hepes buffer pH 7.0, 0.01% BSA, 5 mM MgCl2, 1 mM DTT, 4 μM ATP, 1 μM TK Substrate-Biotin and 0.1 ng JAK2; JAK3: 50 mM Hepes buffer pH 7.0, 0.01% BSA, 5 mM MgCl2, 1 mM DTT, 2 μM ATP, 1 μM TK Substrate-Biotin and 0.3 ng JAK3; TYK2: 50 mM Hepes buffer pH 7.0, 0.01% BSA, 5 mM MgCl2, 1 mM DTT, 13 μM ATP, 50 nM SEB, 1 μM TK Substrate-Biotin and 0.8 ng TYK2. […] A PerkinElmer Envision reader was used to quantify the HTRF signal using the following filters; 320 nm excitation filter, 665 nm emission filter and a 615 nm 2nd emission filter. A ratio ((665/615)×104) was calculated for each well.

[2] = biological target: T2, Human baculovirus-expressed Janus kinase (JAK) 2 (Homo sapiens, UniProt O60674); test: JAK2 kinase assay (HTRF); format: biochemical; conditions: catalytic domain, ATP at Km (4 μM), 20 min
T2 construct: All four purified enzymes contain only the catalytic domain; His-tag (N); purchased Carna Biosciences, Inc 08-045; host or cells: baculovirus expression system
T2 sequence (O60674 849-1124 limits assumed): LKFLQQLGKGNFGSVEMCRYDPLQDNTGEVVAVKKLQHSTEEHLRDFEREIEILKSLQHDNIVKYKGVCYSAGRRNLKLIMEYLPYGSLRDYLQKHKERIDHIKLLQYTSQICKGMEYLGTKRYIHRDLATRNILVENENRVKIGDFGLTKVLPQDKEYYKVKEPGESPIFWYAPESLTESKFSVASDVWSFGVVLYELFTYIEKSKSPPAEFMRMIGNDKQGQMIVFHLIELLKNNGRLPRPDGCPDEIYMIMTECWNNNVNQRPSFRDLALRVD
Protocol: as §1

[3] = biological target: T3, Human baculovirus-expressed Janus kinase (JAK) 3 (Homo sapiens, UniProt P52333); test: JAK3 kinase assay (HTRF); format: biochemical; conditions: catalytic domain, ATP at Km (2 μM), 20 min
T3 construct: All four purified enzymes contain only the catalytic domain; His-tag (N); purchased Carna Biosciences, Inc 08-046; host or cells: baculovirus expression system
T3 sequence (P52333 822-1111 limits assumed): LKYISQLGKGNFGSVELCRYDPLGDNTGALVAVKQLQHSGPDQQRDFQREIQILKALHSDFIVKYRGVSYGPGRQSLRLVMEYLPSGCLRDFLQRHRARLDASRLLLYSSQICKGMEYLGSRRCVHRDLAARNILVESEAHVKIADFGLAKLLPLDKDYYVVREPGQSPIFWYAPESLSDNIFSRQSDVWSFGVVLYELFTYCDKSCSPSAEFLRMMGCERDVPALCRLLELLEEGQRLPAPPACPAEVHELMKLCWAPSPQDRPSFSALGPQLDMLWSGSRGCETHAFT
Protocol: as §1

[4] = biological target: T4, Human baculovirus-expressed tyrosin kinase (TYK) 2 (Homo sapiens, UniProt P29597); test: TYK2 kinase assay (HTRF); format: biochemical; conditions: catalytic domain, ATP at Km (13 μM), 20 min
T4 construct: JAK1 (aa 850-1154) and TYK2 (aa 871-1187) are expressed with an N-terminally fused GST-tag; GST (N); purchased Carna Biosciences, Inc 08-147; host or cells: baculovirus expression system
T4 sequence (P29597 871-1187): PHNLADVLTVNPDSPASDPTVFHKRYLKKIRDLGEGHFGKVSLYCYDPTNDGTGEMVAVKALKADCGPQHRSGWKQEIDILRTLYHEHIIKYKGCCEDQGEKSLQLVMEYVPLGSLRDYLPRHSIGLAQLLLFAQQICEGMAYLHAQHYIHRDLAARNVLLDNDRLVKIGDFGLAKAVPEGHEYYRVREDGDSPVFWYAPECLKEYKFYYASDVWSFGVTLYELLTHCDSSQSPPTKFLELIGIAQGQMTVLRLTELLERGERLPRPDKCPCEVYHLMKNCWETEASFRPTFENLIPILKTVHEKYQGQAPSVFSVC
Protocol: as §1

STAT5 irfi-bla TF1 cells = test: STAT5 Assay; format: cell-based; conditions: TF-1; stimulated with recombinant human erythropoietin (EPO) 10 ng/mL; beta-lactamase reporter
Protocol: Twenty-five μL of a STAT5 irfi-bla TF1 (Invitrogen #K1219) cell suspension was seeded with a density of about 10,000 cells/well in 384-well Black View-plates (PerkinElmer #6007460) with clear bottom in assay medium (Opti-MEM (Invitrogen #11058-021)+0.5% heat inactivated fetal bovine Serum (Invitrogen #10082-147)+1% non-essential amino acids (Invitrogen #11140-050)+1% sodium pyruvate (Invitrogen #11360-070)+1% penicillin/streptomycin (Invitrogen #15140-122)). The cell plates were incubated overnight in a humidified 37° C. air/CO2 (95%/5%) incubator. The following day, 125 nL of solutions of test compounds and reference compounds were transferred to cell plates using the Labcyte Echo 550 liquid handler. The plates were then incubated for 1 h in a humidified 37° C. air/CO2 (95%/5%) incubator. Hereafter recombinant human erythropoietin (EPO) (Invitrogen #PHC9634) was added to the plates also using the Labcyte Echo 550 to a final concentration of 10 ng/mL. The cells were then incubated for 4½-5 h in a humidified 37° C. air/CO2 (95%/5%) incubator. 8 μL of LiveBLAzer substrate mixture (Invitrogen #K1095) were then added to the assay plates, which were then incubated overnight at RT. Fluorescence was then measured: Excitation: 405 nm; Emission: 460 nm (green channel), Emission: 535 nm (blue channel). Background was subtracted in both emission channels and the ratio 460/535 nm was calculated for each well.

STAT6 bla-RA1 cells = test: STAT6 Assay; format: cell-based; conditions: stimulated with recombinant human interleukin 4 10 ng/mL; CD40 ligand; beta-lactamase reporter
Protocol: Twenty-five μL of a STAT6 bla-RA1 (Invitrogen #K1243) cell suspension was seeded with a density of 30-40,000 cells/well in 384-well Black View-plates (PerkinElmer #6007460) with clear bottom in assay medium (Opti-MEM (Invitrogen #11058-021)+0.5% heat inactivated fetal bovine Serum (Invitrogen #10082-147)+1% non-essential amino acids (Invitrogen #11140-050)+1% sodium pyruvate (Invitrogen #11360-070)+1% penicillin/streptomycin (Invitrogen #15140-122)); containing 550 ng/mL of CD40 ligand (Invitrogen #PHP0025). The cell plates were incubated overnight in a humidified 37° C. air/CO2 (95%/5%) incubator. The following day, 125 nL of solutions of test compounds and reference compounds were transferred to cell plates using the Labcyte Echo 550 liquid handler. The plates were then incubated for 1 h in a humidified 37° C. air/CO2 (95%/5%) incubator. Hereafter recombinant human interleukin 4 (Invitrogen #PHC0045) were added to the plates also using the Labcyte Echo 550 to a final concentration of 10 ng/mL. The cells were then incubated for 4½-5 h in a humidified 37° C. air/CO2 (95/b/5%) incubator. 8 μL of LiveBLAzer substrate mixture (Invitrogen #K1095) were then added to the assay plates, which were incubated overnight at RT. Fluorescence was then measured: Excitation: 405 nm; Emission: 460 nm (green channel), Emission: 535 nm (blue channel). Background was subtracted in both emission channels and the ratio 460/535 nm was calculated for each well.

Structure (SMILES) | EC50 [1] | EC50 [2] | EC50 [3] | EC50 [4] | EC50 (STAT5 irfi-bla TF1 cells) | EC50 (STAT6 bla-RA1 cells)
CNc1ncc2nc(C(C)O)n([C@H]3CC[C@H](CC#N)CC3)c2n1 (mixture of isomers) [Compound 2, 2-[trans-4-[8-(1-Hydroxyethyl)-2-(methylamino)purin-9-yl]cyclohexyl]acetonitrile] | 9 nM | 274 nM | 798 nM | 47 nM | 12800 nM | 213 nM
CNc1ncc2nc([C@@H](C)O)n([C@H]3CC[C@H](CC#N)CC3)c2n1 [Compound 1, 2-[trans-4-[8-[(1R)-1-Hydroxyethyl]-2-(methylamino)purin-9-yl]cyclohexyl]acetonitrile] | 5 nM | 157 nM | 602 nM | 19 nM | 5190 nM | 146 nM
[2H]C([2H])([2H])Nc1ncc2nc([C@@H](C)O)n([C@H]3CC[C@H](CC#N)CC3)c2n1 [Compound 3, 2-[trans-4-[8-[(1R)-1-Hydroxyethyl]-2-(trideuteriomethylamino)purin-9-yl]cyclohexyl]acetonitrile] | 3 nM | 129 nM | 510 nM | 13 nM | 4870 nM | 142 nM
